Assay [1] has as its system sarcopenia animal model. The assay is described as follows: Sarcopenia animal model, excised tissue weights. Type of assay: in vivo, mice. Conditions: day 14; for Thymus: dexamethasone 20 mg/kg i.p., extract 300 mg/kg or FL 0.5 mg/kg oral daily. Here is the method: Specifically, male C57BL/6 mice (7 weeks old, Samtako Bio Korea, Korea) were acclimatized, and their body weight (g), lean body weight (g), fat mass (g), and body fat percentage (%) were measured using dual-energy X-ray absorptiometry (DXA). […] A control group consisted of untreated 5 mice (normal mice) at day 0 of treatment.

For assay [2], the system named is sarcopenia animal model. The assay is described as follows: Sarcopenia animal model, body composition by DXA. Type of assay: in vivo, mice. Conditions: for lean body weight / BMC / BMD(g/cm^2) / fat / fat(%) / tissue area(cm^2): DXA; for lean body weight: C57BL/6 mice, dexamethasone 20 mg/kg i.p. daily, extract 300 mg/kg or FL 0.5 mg/kg oral daily; for BMC / BMD(g/cm^2) / fat / fat(%) / tissue area(cm^2): same model and doses. Here is the method:
Specifically, male C57BL/6 mice (7 weeks old, Samtako Bio Korea, Korea) were acclimatized, and their body weight (g), lean body weight (g), fat mass (g), and body fat percentage (%) were measured using dual-energy X-ray absorptiometry (DXA). […] A control group consisted of untreated 5 mice (normal mice) at day 0 of treatment. On days 7 and 14 of treatment, the mice were scanned using DXA to measure body weight, lean body weight, fat mass, and body fat percentage; the results are presented in FIG. 14 and Tables 2 and 3.

Another assay has as its system atrogin-1. Put plainly: Inhibition of muscle protein expression (qPCR): atrogin-1. Conditions: cells treated with FL, FV or FI 2.5-20 μg/mL. Type of assay: cell-based. An excerpt: (§1) The ability of the elderberry extracts and monosaccharide-BCAA conjugate compounds prepared above to inhibit the expression of muscle proteins was confirmed using the qPCR method. Specifically, muscle RING-finger protein-1 (MuRF-1) and atrogin-1, which are both markers of muscle atrophy, and myostatin, which a negative regulator of skeletal muscle mass, were used as target muscle proteins.
(§2) Using the cells treated with the hot water extract, 50% ethanol extract, or 100% ethanol extract of elderberry described in Experimental Example 1-2, qPCR was performed as described above.
(§3) Using the cells treated with FL, FV, or FI as described in Experimental Example 1-3, qPCR was performed as previously outlined.

For another assay, the system named is myostatin. The assay is described as follows: Inhibition of muscle protein expression (qPCR): myostatin. Type of assay: cell-based. As to conditions: cells treated with FL, FV or FI 2.5-20 μg/mL.
From the text: as §1, §2, §3

The next assay deals with TNFα. The assay is described as follows: Inhibition of TNFα expression (qPCR) in dexamethasone-treated myotubes. Type of assay: cell-based. As to conditions: cells treated with FL, FV or FI 2.5-20 μg/mL, FIG. 8. Here is the method: The cells treated with elderberry extracts as in Experimental Example 1-2 were further treated with trypsin to collect only the cells. After centrifugation of the collected cells at 3,000 rpm for 5 minutes, the supernatant was removed and total RNA was extracted by sequentially treating with RiboEx™ and Hybrid-R™ (GeneAll, Korea). The concentration of the extracted RNA was measured using a Nanodrop, and this RNA was used as a template to synthesize cDNA. The cDNA was synthesized using a mixture of RNA, oligo-(dT) primers, and 2×HyperScript™ RT Master Mix (GeneAll, Korea). Subsequently, real-time PCR (qPCR) was performed using the synthesized cDNA as a template and Power SYBR™ Green PCR Master Mix under standard conditions to confirm the expression of TNFα.
Cells treated with FL, FV, or FI as in Experimental Example 1-3 were trypsinized to collect only the cells, and the level of TNFα expression was examined using the same conditions and methods as described in Experimental Example 2-1.
For orientation: Quantitative PCR measures a nucleic acid by following its amplification.

Assay [3] relates to C2C12 myoblast cells differentiated to myotubes. Put plainly: Inhibition of myocyte apoptosis: MTT cell viability in dexamethasone-treated myotubes. Type of assay: cell-based. Conditions: 10 μM dexamethasone, FL, FV, FI 2.5-20 μg/mL or amino acid controls, 24 hours, FIGS. 4-6. Here is the method: Firstly, C2C12 myoblast cells (from ATCC, USA) were cultured in DMEM supplemented with 10% fetal bovine serum (FBS) and 1% antibiotic-antimycotic at 37° C. under a 5% CO2 atmosphere. Thereafter, the medium was replaced with one containing 2% horse serum (HS) for incubation of additional 72 hours. […] Post-treatment, the cells were observed again under a microscope. The results of the differentiation to myotubes are presented in FIG. 1, and the observations post-dexamethasone treatment in FIG. 2.
After 24 hours, the culture medium was removed, and MTT reagent (5 mg/mL) was added to each well and incubated for 4 hours. Subsequently, DMSO was added to dissolve any precipitates, and the absorbance was read at 570 nm.
Apart from FL, which was found in elderberry extracts, fructose-valine (FV) and fructose-isoleucine (FI) conjugates in which the branched-chain amino acid valine or isoleucine is conjugated to the monosaccharide fructose were also tested for inhibition against myocyte apoptosis. Experiments were conducted in the same manner and conditions as in Experiment Example 1-2, except that FL, FV, or FI was used at concentrations of 2.5, 5, 10, or 20 μg/mL instead of elderberry extracts. As controls, amino acids such as leucine, valine, isoleucine, tryptophan, arginine, tyrosine, glycine, lysine, methionine, phenylalanine, or threonine were used. The cell viability calculated from the treatments with FL, FV, or FI are presented in FIG. 4, and results from amino acid treatments in FIGS. 5 and 6.

In the next assay the test system is MuRF-1. The assay is described as follows: Inhibition of muscle protein expression (qPCR): MuRF-1. Type of assay: cell-based. Conditions: cells treated with FL, FV or FI 2.5-20 μg/mL.
From the text: as §1, §2, §3

Another assay has as its system TM3 cell line. The assay is described as follows: Promotion of testosterone secretion (ELISA) in H2O2-treated Leydig cells. As to conditions: 500 μM H2O2 6 hours; extract 12.5-100 μg/mL or FL 1.25-10 μg/mL; ELISA of medium; FIG. 9. Type of assay: cell-based. On the procedure: First, the TM3 cell line (from ATCC, USA), which is Leydig cells, were cultured using a standard method. The cultured cells were treated with 500 μM of hydrogen peroxide (H2O2) for 6 hours, followed by the addition of either 12.5, 25, 50, or 100 μg/mL of the hot water extract of elderberry or 1.25, 2.5, 5, or 10 μg/mL of FL (fructose-leucine). Subsequently, ELISA was performed using the cultured cell medium to determine the levels of testosterone, and the results are presented in FIG. 9.
For orientation: An ELISA detects its analyte on a solid surface through an enzyme-linked reagent.

[4] abbreviates: excised tissue weight, same model and doses.
The mark [5] stands for this setting: result in words, sarcopenia mice, 14 days.

Take `C[C@@H]1C[C@H]2[C@@H]3CCC4=CC(=O)C=C[C@]4(C)[C@@]3(F)[C@@H](O)C[C@]2(C)[C@@]1(O)C(=O)CO` [Dexamethasone, dexamethasone, reference compound]: the “Thymus” value with sarcopenia animal model [1] (excised tissue weight) is listed as 0.009 ± 0.004 g. Also, in the assay with sarcopenia animal model [1] (setting [4]), the “Muscle” value is recorded as 0.501 ± 0.064 g and the “Spleen” value came to 0.026 ± 0.01 g. For the same molecule, in the assay on sarcopenia animal model [2] (Day 0), the “lean body weight” value is 18.93 ± 1.42 g, the “BMC” value stood at 0.23 ± 0.13 g, the “BMD(g/cm^2)” value is 0.057 ± 0.012 g/cm^2 and the “fat” value is on record as 1.44 ± 0.16 g. In addition, in the assay on sarcopenia animal model [2] (Day 0), the “fat(%)” value stood at 7.1 ± 1.07% and the “tissue area(cm^2)” value is 13.32 ± 2.03 cm^2. Further, in the assay on sarcopenia animal model [2] (Day 7), the “lean body weight” value was determined as 17.53 ± 1.36 g, the “BMC” value turned out to be 0.16 ± 0.02 g, the “BMD(g/cm^2)” value turned out to be 0.052 ± 0.004 g/cm^2 and the “fat” value amounted to 1.13 ± 0.34 g. In addition, in the assay on sarcopenia animal model [2] (Day 7), the “fat(%)” value came to 5.99 ± 1.53% and the “tissue area(cm^2)” value is 12.41 ± 1.31 cm^2. Further, in the assay with sarcopenia animal model [2] (Day 14), the “lean body weight” value is listed as 17.47 ± 0.29 g, the “BMC” value stood at 0.16 ± 0.01 g, the “BMD(g/cm^2)” value is 0.057 ± 0.004 g/cm^2 and the “fat” value worked out at 1.56 ± 0.34 g. For the same molecule, in the assay with sarcopenia animal model [2] (Day 14), the “fat(%)” value is on record as 8.17 ± 1.58% and the “tissue area(cm^2)” value worked out at 13.97 ± 0.51 cm^2.
In the case of `CC(C)[C@H](NCC1(O)OC[C@@H](O)[C@H](O)C1O)C(=O)O` (stereo partly drawn) [FV, fructose-valine], the “mRNA expression level of atrogin-1 increased by dexamethasone” value in the assay on atrogin-1 was “significantly decreased”. In addition, the “mRNA expression level of myostatin increased by dexamethasone” value in the assay on myostatin is “significantly decreased”. Besides, the “level of TNFα expression increased by dexamethasone” value (from here on “level of TNFα expression increased”) in the assay on TNFα is given as “significantly suppressed”. Moreover, the “cell viability reduced by dexamethasone” value in assay [3] is recorded as “significantly restored”. Further, in the assay with MuRF-1, the “mRNA expression level of MuRF-1 increased by dexamethasone” value is recorded as “significantly decreased”.
As to `CC[C@H](C)[C@H](NCC1(O)OC[C@@H](O)[C@@H](O)[C@@H]1O)C(=O)O` (stereo partly drawn) [FI, fructose-isoleucine], in the assay on atrogin-1, the “mRNA expression level of atrogin-1 increased by dexamethasone” value is on record as “significantly decreased”. Besides, the “mRNA expression level of myostatin increased by dexamethasone” value in the assay with myostatin was “significantly decreased”. The “level of TNFα expression increased” value in the assay on TNFα is reported as “significantly suppressed”. Further, in assay [3], the “cell viability reduced by dexamethasone” value is “significantly restored”. Further, the “mRNA expression level of MuRF-1 increased by dexamethasone” value in the assay on MuRF-1 is “significantly decreased”.
Turning to `CC(C)CC(NCC1(O)OCC(O)C(O)C1O)C(=O)O` (stereo not drawn) [FL, fructose-leucine], the “mRNA expression level of atrogin-1 increased by dexamethasone” value with atrogin-1 is on record as “significantly decreased”. In the assay on myostatin, the “mRNA expression level of myostatin increased by dexamethasone” value was “significantly decreased”. Also, the “concentration of testosterone suppressed by hydrogen peroxide” value with TM3 cell line is reported as “significantly restored”. Moreover, the “level of TNFα expression increased” value in the assay with TNFα is “significantly suppressed”. In addition, in the assay with sarcopenia animal model [1] (excised tissue weight), the “Thymus” value was determined as 0.009 ± 0.002 g. In the assay on sarcopenia animal model [1] (setting [4]), the “Liver” value turned out to be 1.375 ± 0.117 g, the “Muscle” value is given as 0.683 ± 0.18 g and the “Spleen” value worked out at 0.028 ± 0.009 g. Moreover, the “weights of the various tissues” value with sarcopenia animal model [1] (result in words) is reported as “restored to levels similar to those of the normal control group”. Moreover, the “cell viability reduced by dexamethasone” value in assay [3] is given as “significantly restored”. Also, the “mRNA expression level of MuRF-1 increased by dexamethasone” value in the assay with MuRF-1 is recorded as “significantly decreased”. Further, in the assay with sarcopenia animal model [2] (Day 0), the “lean body weight” value was 18.31 ± 1.43 g, the “BMC” value was 0.19 ± 0.04 g, the “BMD(g/cm^2)” value is 0.053 ± 0.004 g/cm^2 and the “fat” value is 1.27 ± 0.25 g. Besides, in the assay on sarcopenia animal model [2] (Day 0), the “fat(%)” value is 6.49 ± 1.03% and the “tissue area(cm^2)” value worked out at 13.13 ± 1.08 cm^2. For the same molecule, in the assay with sarcopenia animal model [2] (Day 7), the “lean body weight” value stood at 18.05 ± 0.44 g, the “BMC” value came out at 0.20 ± 0.03 g, the “BMD(g/cm^2)” value is 0.059 ± 0.009 g/cm^2 and the “fat” value stood at 1.43 ± 0.53 g. Further, in the assay with sarcopenia animal model [2] (Day 7), the “fat(%)” value is listed as 7.31 ± 2.47% and the “tissue area(cm^2)” value was 13.83 ± 0.53 cm^2. Besides, in the assay with sarcopenia animal model [2] (Day 14), the “lean body weight” value amounted to 18.34 ± 0.56 g, the “BMC” value is reported as 0.19 ± 0.04 g, the “BMD(g/cm^2)” value is 0.056 ± 0.006 g/cm^2 and the “fat” value is 1.29 ± 0.19 g. For the same molecule, in the assay with sarcopenia animal model [2] (Day 14), the “fat(%)” value came out at 6.57 ± 0.76% and the “tissue area(cm^2)” value was 13.66 ± 0.92 cm^2. In the assay with sarcopenia animal model [2] (setting [5]), the “body weight of the mice” value is listed as “restored”, the “lean body weight of the mice” value is listed as “restored” and the “tissue areas of the mice” value is “restored”.

The values above are taken from patent publication US20250064875A1, “PHARMACEUTICAL COMPOSITION FOR PREVENTING OR TREATING MUSCLE DISEASES” (KOSA BIO INC., priority 2021, published 2025).
